Experimental data published in patent US8476439B2, “Pyridine classical cannabinoid compounds and related methods of use” (priority 2008, dated 2013).

System: glioblastoma brain cancer cell line LN-229
Assay: Cytotoxicity assay (CCK8 viability)
Format: cell-based
Settings: Homo sapiens, cytotoxicity against LN-229, 18 hours incubation, 1% FBS media
Method: Cytoxocity assay: Cells were seeded on a 96 well polystyrene plate in full serum media at a density of 75,000 cells per milliliter, 100 μL per well. Plates were incubated at 37° C. and 5% CO2 for 24 hours to allow cell attachment. Drug solutions were prepared in DMSO at 100× concentration and mixed 1:100 in 1% FBS media to yield the desired concentration. Drug-media mixtures were vortexed immediately prior to administration to cells. Full serum media was removed and replaced with drug-media mixtures and incubated for 18 hours. 10 μL of Cell Counting Kit 8 (CCK8, Dojindo# CK04-11) was added to each well to colormetrically assess viability. After 2-4 hours of incubation with the CCK8 dye, absorbance was read at 450 nm by a BioTek Synergy 2 plate reader.
The cytotoxicity of selected compounds against the glioblastoma brain cancer cell line LN-229 is depicted in Table 1.

Structure (SMILES) | EC50 [nM]
CCCCCCC(C)(C)c1cc2c(c(O)n1)[C@@H]1C[C@H](C)CC[C@@H]1C(C)(C)O2 [Compound 6b, (6aS,9R,10aR)-6,6,9-trimethyl-3-(2-methyloctan-2-yl)-6a,7,8,9,10,10a-hexahydro-6H-isochromeno[4,3-c]pyridin-1-ol] | 2430
CCCCCCC(C)(C)c1cc2c(c(O)n1)[C@H]1C[C@@H](C)CC[C@H]1C(C)(C)O2 [Compound 6c, (6aR, 9S, 10aS)-6,6,9-trimethyl-3-(2-methyloctan-2-yl)-6a,7,8,9,10,10a-hexahydro-6H-isochromeno[4,3-c]pyridin-1-ol] | 1830
